Source: US6531496B1 (Bayer Aktiengesellschaft, priority 1999, dated 2003)

Experiment: logP by HPLC (EEC Directive 79/831 Annex V. A8, gradient method)
Assay type: physicochemical
Details: HPLC, gradient method, acetonitrile/0.1% aqueous phosphoric acid; Table 1
Compound `COc1cc(C=CN2C(=O)c3ccccc3C2=O)ccc1OC1=NS(=O)(=O)CS1` (mixture of isomers) [Example 79] has a logP of 2.63.
`O=[N+]([O-])c1ccc(C=Cc2cccc(OC3=NS(=O)(=O)CS3)c2)c([N+](=O)[O-])c1` (mixture of isomers) [Example 81] gave a logP of 3.22.
In the case of `O=[N+]([O-])c1ccc(C=Cc2cccc(OC3=NS(=O)(=O)CS3)c2[N+](=O)[O-])cc1` (mixture of isomers) [Example 85], the logP is reported as 3.28.
`COc1cc(C=Cc2ccccc2)cc(OC2=NS(=O)(=O)CS2)c1` (mixture of isomers) [Example 87] showed a logP of 3.62.
Work on `CC(=Cc1cccc(OC2=NS(=O)(=O)CS2)c1)[N+](=O)[O-]` (mixture of isomers) [Example 89] yielded a logP of 2.46.
`CC(O)c1cccc(OC2=NS(=O)(=O)CS2)c1` (racemic) [Example 80] gave a logP of 1.48.
With `CCCCCC(O)c1cccc(OC2=NS(=O)(=O)CS2)c1` (racemic) [Example 82] the logP was 2.87.
For `CON=C(C1=NOCCO1)c1ccccc1OC1=NS(=O)(=O)CS1` [Example 4], the logP was 1.77.
Work on `COC=C(C(=O)OC)c1ccccc1OC1=NS(=O)(=O)CS1` [Example 5] yielded a logP of 2.03.
`O=S1(=O)CSC(Oc2ccccc2CC2=NOCCO2)=N1` [Example 6] gave a logP of 1.69.
Work on `COC(=O)C(=NOCC#N)c1ccccc1OC1=NS(=O)(=O)CS1` [Example 7] yielded a logP of 1.7.
Compound `N#CCc1ccccc1OC1=NS(=O)(=O)CS1` [Example 8] has a logP of 1.68.
For `CON=C(C(=O)NCc1ccccc1)c1ccccc1OC1=NS(=O)(=O)CS1` [Example 9], the logP was 2.13.
`CON=C(C(=O)NOCc1ccccc1)c1ccccc1OC1=NS(=O)(=O)CS1` [Example 10] showed a logP of 2.18.
With `CON=C(C(N)=O)c1ccccc1OC1=NS(=O)(=O)CS1` [Example 11] the logP was 1.33.
For `CON=C(C)c1ccc(OC2=NS(=O)(=O)CS2)c(C)c1` [Example 16], the logP was 2.88.
`CCON=C(C)c1ccc(OC2=NS(=O)(=O)CS2)c(C)c1` [Example 17] gave a logP of 3.32.
Compound `CC(=NOCc1ccccc1)c1ccc(OC2=NS(=O)(=O)CS2)c(C)c1` [Example 18] has a logP of 3.92.
`CC(C)n1nc(-c2ccc(OC3=NS(=O)(=O)CS3)cc2)ccc1=O` [Example 19] showed a logP of 2.15.
Compound `C=CCON=C(C)c1ccc(OC2=NS(=O)(=O)CS2)cc1` [Example 23] has a logP of 3.15.
For `CC(=NOCc1ccccc1)c1cccc(OC2=NS(=O)(=O)CS2)c1` [Example 25], the logP was 3.67.
For `CON=C(C)c1cc(OC2=NS(=O)(=O)CS2)ccc1OC1=NS(=O)(=O)CS1` [Example 30], the logP was 2.43.
With `COC(=O)c1ccc(OC2=NS(=O)(=O)CS2)cc1C(=O)OC` [Example 32] the logP was 1.93.
`CC(C)(C)c1cc(OC2=NS(=O)(=O)CS2)ccc1O` [Example 34] showed a logP of 2.66.
`O=S1(=O)CSC(Oc2ccc(-c3nnco3)cc2)=N1` [Example 35] gave a logP of 1.36.
Work on `CCOC(=O)NN=Cc1cccc(OC2=NS(=O)(=O)CS2)c1` [Example 36] yielded a logP of 1.79.
`N#CC(C#N)=Cc1cccc(OC2=NS(=O)(=O)CS2)c1` [Example 38] gave a logP of 1.59.
Work on `CC(C)(C)ON=C(c1ccccc1)c1cccc(OC2=NS(=O)(=O)CS2)c1` [Example 43] yielded a logP of 4.4.
For `O=S1(=O)CSC(Oc2cccc(C(=NOCc3ccccc3)c3ccccc3)c2)=N1` [Example 44], the logP was 4.15.
With `O=S1(=O)CSC(Oc2ccc(-c3nc4ccccc4o3)cc2)=N1` [Example 45] the logP was 2.88.
For `O=S1(=O)CSC(Oc2cccc(CO)c2)=N1` [Example 46], the logP was 1.23.
Compound `O=S1(=O)CSC(Oc2ccc(N=Nc3ccccc3)cc2)=N1` [Example 47] has a logP of 3.47.
`O=S1(=O)CSC(Oc2ccc(N=Nc3ccccc3)cc2Cl)=N1` [Example 48] gave a logP of 3.96.
`COC(=O)Nc1ccc(C=Cc2cccc(OC3=NS(=O)(=O)CS3)c2)c(NC(=O)OC)c1` [Example 49] gave a logP of 2.43.
Compound `O=[N+]([O-])c1ccc(/C=C/c2ccc(OC3=NS(=O)(=O)CS3)cc2)cc1` [Example 50] has a logP of 3.3.
Work on `O=S1(=O)CSC(Oc2ccc(N=Nc3ccccc3)cc2OC2=NS(=O)(=O)CS2)=N1` [Example 51] yielded a logP of 3.06.
In the case of `Cc1cc(OC2=NS(=O)(=O)CS2)ccc1SC(F)(F)F` [Example 52], the logP is reported as 3.39.
`CN=Cc1ccc(OC2=NS(=O)(=O)CS2)cc1` [Example 53] showed a logP of 2.33.
With `CSc1ccc(OC2=NS(=O)(=O)CS2)cc1C` [Example 54] the logP was 2.75.
Work on `N#CSCC(=O)c1ccc(OC2=NS(=O)(=O)CS2)cc1` [Example 55] yielded a logP of 2.01.
`O=S1(=O)CSC(Oc2cccc(C3=NOCCO3)c2)=N1` [Example 56] gave a logP of 1.86.
With `CCC(=O)c1ccccc1OC1=NS(=O)(=O)CS1` [Example 57] the logP was 2.04.
In the case of `COc1cc(OC2=NS(=O)(=O)CS2)ccc1C(C)=O` [Example 58], the logP is reported as 1.88.
With `CCS(=O)(=O)c1ccc(OC2=NS(=O)(=O)CS2)cc1` [Example 59] the logP was 1.54.
In the case of `Cc1cc(OC2=NS(=O)(=O)CS2)cc(C)c1SC#N` [Example 60], the logP is reported as 2.55.
`CN(C)N=Cc1ccc(OC2=NS(=O)(=O)CS2)cc1` [Example 61] gave a logP of 2.16.
`Cc1nc(Sc2ccc(OC3=NS(=O)(=O)CS3)cc2)sc1C` [Example 62] showed a logP of 2.91.
Compound `Cc1cnc(Sc2ccc(OC3=NS(=O)(=O)CS3)cc2)nc1C` [Example 63] has a logP of 2.55.
Work on `CCN(CC)C(=O)c1ccc(OC2=NS(=O)(=O)CS2)c(NC)c1` [Example 64] yielded a logP of 2.
`O=C(Cc1ccccc1)c1ccc(OC2=NS(=O)(=O)CS2)cc1` [Example 65] gave a logP of 2.76.
For `COc1ccc(C(=O)c2ccc(OC3=NS(=O)(=O)CS3)cc2)cc1` [Example 66], the logP was 2.67.
Compound `O=C(C=Cc1ccccc1)c1ccc(OC2=NS(=O)(=O)CS2)cc1` [Example 67] has a logP of 3.06.
In the case of `COC(=O)c1ccc(N=Cc2ccc(OC3=NS(=O)(=O)CS3)cc2)cc1` [Example 68], the logP is reported as 1.59.
Compound `CSc1nnc(C(C)(C)C)c(=O)n1N=Cc1cccc(OC2=NS(=O)(=O)CS2)c1` [Example 69] has a logP of 3.43.
In the case of `O=C(c1ccc(OC2=NS(=O)(=O)CS2)cc1)c1ccc(-c2ccccc2)cc1` [Example 70], the logP is reported as 3.72.
In the case of `CCCCc1oc2ccccc2c1C(=O)c1ccc(OC2=NS(=O)(=O)CS2)cc1` [Example 71], the logP is reported as 4.28.
`CCOC(=O)NN=C(C)c1ccc(OC2=NS(=O)(=O)CS2)cc1` [Example 72] showed a logP of 1.86.
In the case of `O=S1(=O)CSC(Oc2ccc(C3=Nc4ccccc4SC(c4ccccc4)C3)cc2)=N1` (centres unmarked) [Example 73], the logP is reported as 4.19.
With `CC(=O)c1cc(OC2=NS(=O)(=O)CS2)cc([N+](=O)[O-])c1` [Example 74] the logP was 1.95.
For `COc1ccc(C(C)=O)c(OC2=NS(=O)(=O)CS2)c1` [Example 75], the logP was 1.83.
In the case of `COC(=O)c1ccc(N=Cc2cccc(OC3=NS(=O)(=O)CS3)c2)cc1` [Example 76], the logP is reported as 1.61.
For `O=S1(=O)CSC(Oc2ccc(S(=O)(=O)c3ccc(Cl)cc3)cc2)=N1` [Example 83], the logP was 2.72.
In the case of `Cc1cc(OC2=NS(=O)(=O)CS2)ccc1Sc1ccc([N+](=O)[O-])cc1C` [Example 84], the logP is reported as 3.94.
`O=C(c1ccc(Cl)cc1)c1ccc(OC2=NS(=O)(=O)CS2)cc1` [Example 86] showed a logP of 3.17.
Compound `O=S1(=O)CSC(Oc2ccc(OC3=NS(=O)(=O)CS3)cc2)=N1` [Example 88] has a logP of 1.88.
Compound `O=S1(=O)CSC(Oc2cccc(CCO)c2)=N1` [Example 90] has a logP of 1.39.
In the case of `O=S1(=O)CSC(Oc2cccc(OCCO)c2)=N1` [Example 91], the logP is reported as 1.37.
For `N#Cc1cccc(OC2=NS(=O)(=O)CS2)c1` [Example 109], the logP was 1.69.
For `O=S1(=O)CSC(Oc2ccc(F)cc2)=N1` [Example 112], the logP was 2.04.
`O=S1(=O)CSC(Oc2cccc(C(F)(F)F)c2)=N1` [Example 113] gave a logP of 2.62.
Work on `COc1cc(Cl)cc(OC2=NS(=O)(=O)CS2)c1` [Example 116] yielded a logP of 2.61.
Work on `COc1ccc(OC2=NS(=O)(=O)CS2)cc1OC` [Example 117] yielded a logP of 1.82.
`COc1cccc(OC2=NS(=O)(=O)CS2)c1OC` [Example 118] showed a logP of 2.12.
`Cc1cc(S(=O)(=O)c2ccccc2)cc(Cl)c1OC1=NS(=O)(=O)CS1` [Example 120] gave a logP of 2.83.
Compound `O=[N+]([O-])c1ccc(Sc2ccc(OC3=NS(=O)(=O)CS3)cc2)cc1` [Example 121] has a logP of 3.28.
For `O=S1(=O)CSC(Oc2ccc(Br)cc2)=N1` [Example 122], the logP was 2.52.
`Cc1cccc(C)c1OC1=NS(=O)(=O)CS1` [Example 123] gave a logP of 2.57.
Work on `O=S1(=O)CSC(Oc2ccc(OC(F)(F)F)cc2)=N1` [Example 124] yielded a logP of 2.79.
With `Cc1ccc(C)c(OC2=NS(=O)(=O)CS2)c1` [Example 125] the logP was 2.63.
With `O=[N+]([O-])c1ccc(Oc2ccc(OC3=NS(=O)(=O)CS3)cc2)c(Cl)c1` [Example 126] the logP was 3.33.
With `CC(C)Oc1ccccc1OC1=NS(=O)(=O)CS1` [Example 129] the logP was 2.7.
Compound `O=C(C=Cc1ccccc1)c1ccccc1OC1=NS(=O)(=O)CS1` [Example 130] has a logP of 2.91.
`O=S1(=O)CSC(Oc2ccccc2C(F)(F)F)=N1` [Example 131] showed a logP of 2.49.
In the case of `O=S1(=O)CSC(Oc2ccc(C(F)(F)F)cc2)=N1` [Example 132], the logP is reported as 2.64.
`O=S1(=O)CSC(Oc2cccc(OC(F)(F)F)c2)=N1` [Example 134] gave a logP of 2.35.
`O=S1(=O)CSC(Oc2ccc(SC(F)(F)F)cc2)=N1` [Example 135] gave a logP of 3.07.
For `COc1ccccc1OC1=NS(=O)(=O)CS1` [Example 136], the logP was 2.02.
With `Cc1cc(OC2=NS(=O)(=O)CS2)ccc1N` [Example 137] the logP was 0.83.

Same assay, conditions: Table 2
In the case of `O=S1(=O)CSC(Oc2ccc3c(c2)OCO3)=N1` [Example 142], the chromatographic logP is reported as 1.9.

Same assay, conditions: gradient of acetonitrile/0.1% aqueous phosphoric acid; HPLC, gradient method, acetonitrile/0.1% aqueous phosphoric acid; Table 1
`CC(C)(CCl)C(=O)Nc1ccc(OC2=NS(=O)(=O)CS2)c(Cl)c1Cl` [Example 13] gave a chromatographic logP of 2.98.
`CO/N=C(/C)c1cccc(OC2=NS(=O)(=O)CS2)c1` [Example 26] gave a chromatographic logP of 2.65.
For `Cc1ccc(OC2=NS(=O)(=O)CS2)c(C)c1` [Example 127], the chromatographic logP was 2.65.
